For series [1], the target named is Beta-3 adrenergic receptor (Homo sapiens, UniProt P13945). As to the kind of experiment: DRUGMATRIX: Adrenergic beta3 radioligand binding (ligand: [125I] Cyanopindolol). It is filed as cell membranes, HEK293, Membrane. Particulars: Not Active = under 50% inhibition at 10 µM.
In series [2] the target is 5-hydroxytryptamine receptor 4 (Cavia porcellus, UniProt O70528). It is filed as cell membranes, Dunkin-Hartley, Striatum, Membrane. Also: in other assays of this panel Not Active means under 50% inhibition at 10 µM.
Sequence of 5-hydroxytryptamine receptor 4 (O70528 whole entry): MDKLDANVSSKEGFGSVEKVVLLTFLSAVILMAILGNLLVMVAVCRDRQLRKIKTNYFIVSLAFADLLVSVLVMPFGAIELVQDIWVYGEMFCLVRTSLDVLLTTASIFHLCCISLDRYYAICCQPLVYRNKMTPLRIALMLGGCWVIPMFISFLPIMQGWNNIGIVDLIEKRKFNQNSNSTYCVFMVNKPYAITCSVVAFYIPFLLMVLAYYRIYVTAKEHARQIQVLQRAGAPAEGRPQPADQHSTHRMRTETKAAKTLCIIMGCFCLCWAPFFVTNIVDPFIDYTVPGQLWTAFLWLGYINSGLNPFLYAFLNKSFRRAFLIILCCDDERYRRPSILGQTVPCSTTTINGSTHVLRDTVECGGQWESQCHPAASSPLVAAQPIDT
A short description of series [3]: DRUGMATRIX: Sigma2 radioligand binding (ligand: [3H] Ifenprodil). The series is classed as cell membranes, Rattus norvegicus, Wistar, Brain, Membrane. Particulars: Not Active = under 50% inhibition at 10 µM.
Series [4] deals with T1, Substance-K receptor (Homo sapiens, UniProt P21452).
T1 sequence (P21452 whole entry): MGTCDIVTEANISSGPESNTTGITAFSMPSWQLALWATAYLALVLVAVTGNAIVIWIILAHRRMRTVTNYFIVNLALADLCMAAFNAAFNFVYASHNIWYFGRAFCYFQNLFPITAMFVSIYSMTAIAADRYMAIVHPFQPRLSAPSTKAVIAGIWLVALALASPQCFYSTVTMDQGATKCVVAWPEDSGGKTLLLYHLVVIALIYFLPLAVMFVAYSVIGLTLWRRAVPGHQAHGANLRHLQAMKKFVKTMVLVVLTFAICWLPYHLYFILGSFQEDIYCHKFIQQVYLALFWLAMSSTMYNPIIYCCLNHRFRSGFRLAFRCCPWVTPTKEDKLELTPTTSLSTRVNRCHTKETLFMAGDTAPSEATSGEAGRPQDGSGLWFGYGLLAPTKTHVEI
The series is classed as cell membranes, CHO, Membrane.

Series [5] addresses C-C chemokine receptor type 2 (Homo sapiens, UniProt P41597). The series is classed as cell membranes, CHO-K1, Membrane. The settings on record: cho-k1.
In series [6] the target is T2, C-C chemokine receptor type 4 (Homo sapiens, UniProt P51679). Also: in other assays of this panel Not Active means under 50% inhibition at 10 µM.
T2 sequence (P51679 whole entry): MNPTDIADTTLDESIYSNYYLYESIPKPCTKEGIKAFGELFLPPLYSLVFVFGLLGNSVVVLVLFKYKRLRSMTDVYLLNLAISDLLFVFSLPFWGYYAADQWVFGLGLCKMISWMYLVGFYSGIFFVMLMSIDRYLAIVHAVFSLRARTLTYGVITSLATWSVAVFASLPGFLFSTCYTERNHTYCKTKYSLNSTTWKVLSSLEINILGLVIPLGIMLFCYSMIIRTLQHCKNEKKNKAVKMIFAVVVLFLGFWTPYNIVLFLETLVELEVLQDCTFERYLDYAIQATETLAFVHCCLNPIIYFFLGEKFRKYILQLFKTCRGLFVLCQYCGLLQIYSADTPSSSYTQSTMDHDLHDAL
The series is classed as cell membranes, Membrane. The settings on record: chem-1.

Series [7] concerns the target T3, D(4) dopamine receptor (Homo sapiens, UniProt P21917).
T3 sequence (P21917 whole entry): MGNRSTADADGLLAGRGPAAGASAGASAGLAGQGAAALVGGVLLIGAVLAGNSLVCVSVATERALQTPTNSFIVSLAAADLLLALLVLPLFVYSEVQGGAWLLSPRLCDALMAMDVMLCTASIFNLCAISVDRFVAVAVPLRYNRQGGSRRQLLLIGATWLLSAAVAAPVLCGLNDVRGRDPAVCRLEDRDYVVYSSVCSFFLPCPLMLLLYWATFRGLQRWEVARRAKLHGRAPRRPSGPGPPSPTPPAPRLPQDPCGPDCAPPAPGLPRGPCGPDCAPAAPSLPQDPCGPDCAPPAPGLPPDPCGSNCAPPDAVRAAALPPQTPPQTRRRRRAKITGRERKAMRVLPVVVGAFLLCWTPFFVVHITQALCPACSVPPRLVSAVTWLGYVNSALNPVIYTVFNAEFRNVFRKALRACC
As to the kind of experiment: DRUGMATRIX: Dopamine D4.2 radioligand binding (ligand: [3H] Spiperone). The series is classed as cell membranes, CHO-K1, Membrane. Particulars: cho-k1; Not Active = under 50% inhibition at 10 µM.

For series [8], the target named is Sodium-dependent dopamine transporter (Homo sapiens, UniProt Q01959). As to the kind of experiment: DRUGMATRIX: Dopamine Transporter radioligand binding (ligand: [125I] RTI-55). The series is classed as cell membranes, CHO-K1, Membrane. Particulars: Not Active = under 50% inhibition at 10 µM.
Sequence of Sodium-dependent dopamine transporter (Q01959 whole entry): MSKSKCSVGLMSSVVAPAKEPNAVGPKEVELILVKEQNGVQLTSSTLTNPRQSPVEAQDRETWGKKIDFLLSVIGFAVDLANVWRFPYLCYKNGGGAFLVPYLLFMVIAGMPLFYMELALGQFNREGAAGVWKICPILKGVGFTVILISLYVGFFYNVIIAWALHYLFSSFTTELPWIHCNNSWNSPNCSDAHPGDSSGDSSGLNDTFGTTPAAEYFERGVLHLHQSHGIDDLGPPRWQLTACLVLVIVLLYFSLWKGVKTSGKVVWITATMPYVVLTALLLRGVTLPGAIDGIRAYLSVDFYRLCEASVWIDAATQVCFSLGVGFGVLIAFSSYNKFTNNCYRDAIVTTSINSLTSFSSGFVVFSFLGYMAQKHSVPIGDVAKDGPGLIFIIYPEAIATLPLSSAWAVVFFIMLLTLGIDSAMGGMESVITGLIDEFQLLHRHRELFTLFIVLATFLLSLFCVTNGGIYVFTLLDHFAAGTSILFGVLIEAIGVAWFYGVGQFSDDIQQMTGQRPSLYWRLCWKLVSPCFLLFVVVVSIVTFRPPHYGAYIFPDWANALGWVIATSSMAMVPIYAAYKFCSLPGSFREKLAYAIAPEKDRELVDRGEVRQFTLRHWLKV
A short description of series [9]: DRUGMATRIX: Glutamate, Kainate radioligand binding (ligand: [3H] Kainic acid). It is filed as cell membranes, Rattus norvegicus, Wistar, Brain, Membrane. Particulars: Not Active = under 50% inhibition at 10 µM.
The nature of series [10]: DRUGMATRIX: Glutamate, NMDA, Phencyclidine radioligand binding (ligand: [3H] TCP). The settings on record: Not Active = under 50% inhibition at 10 µM. The series is classed as cell membranes, Rattus norvegicus, Wistar, Cerebral cortex, Membrane.
Series [11] deals with Histamine H2 receptor (Homo sapiens, UniProt P25021). The series is classed as cell membranes, CHO-K1, Membrane. Particulars: cho-k1.
Sequence of Histamine H2 receptor (P25021 whole entry): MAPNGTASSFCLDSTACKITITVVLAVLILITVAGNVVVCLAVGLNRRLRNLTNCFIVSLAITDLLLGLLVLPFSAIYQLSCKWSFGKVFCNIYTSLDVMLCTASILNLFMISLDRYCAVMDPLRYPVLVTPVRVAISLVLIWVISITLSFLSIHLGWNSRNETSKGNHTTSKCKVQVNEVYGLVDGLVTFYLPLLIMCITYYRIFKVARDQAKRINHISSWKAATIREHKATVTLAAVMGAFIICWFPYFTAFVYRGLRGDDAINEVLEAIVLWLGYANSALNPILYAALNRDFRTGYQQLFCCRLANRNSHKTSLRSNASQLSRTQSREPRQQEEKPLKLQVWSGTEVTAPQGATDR
Series [12] has as its target T4, Leukotriene C4 synthase (Cavia porcellus, UniProt A6XA80).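 Also: enzyme inhibition assay of leukotriene C4 synthase, using LTA4 as the substrate; in other assays of this panel Not Active means under 50% inhibition at 10 µM.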
T4 sequence (A6XA80 whole entry): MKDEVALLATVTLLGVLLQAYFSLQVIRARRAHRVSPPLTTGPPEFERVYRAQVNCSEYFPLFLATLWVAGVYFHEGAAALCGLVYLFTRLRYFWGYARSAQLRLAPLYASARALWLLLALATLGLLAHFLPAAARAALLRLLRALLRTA
Description: biochemical. It is filed as tissue-based, Lung.

For series [13], the target named is T5, Muscarinic acetylcholine receptor M4 (Homo sapiens, UniProt P08173). Also: in other assays of this panel Not Active means under 50% inhibition at 10 µM.
T5 sequence (P08173 whole entry): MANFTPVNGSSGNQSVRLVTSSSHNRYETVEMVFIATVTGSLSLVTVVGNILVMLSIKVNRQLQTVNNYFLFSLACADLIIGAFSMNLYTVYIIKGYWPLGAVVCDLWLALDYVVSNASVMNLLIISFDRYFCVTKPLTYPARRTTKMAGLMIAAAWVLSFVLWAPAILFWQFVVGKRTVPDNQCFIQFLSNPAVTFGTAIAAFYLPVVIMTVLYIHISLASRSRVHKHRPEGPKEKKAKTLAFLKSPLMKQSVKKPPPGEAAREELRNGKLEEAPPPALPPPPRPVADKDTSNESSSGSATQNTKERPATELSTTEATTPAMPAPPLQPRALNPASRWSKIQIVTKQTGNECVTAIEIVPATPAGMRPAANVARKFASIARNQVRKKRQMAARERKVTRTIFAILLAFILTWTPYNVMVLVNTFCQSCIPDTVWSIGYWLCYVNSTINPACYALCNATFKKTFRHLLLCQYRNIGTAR
It is filed as cell membranes, CHO-K1, Membrane. The settings on record: cho-k1.

A short description of series [14]: DRUGMATRIX: Phosphodiesterase PDE3 enzyme inhibition (substrate: [3H]cAMP + cAMP). Particulars: platelet; Not Active = under 50% inhibition at 10 µM. It is filed as tissue-based, Homo sapiens.
Series [15] addresses Tyrosine-protein kinase Fyn (Homo sapiens, UniProt P06241). As to the kind of experiment: biochemical. It is filed as cell-based, Insect cells. The settings on record: insect cells.
A short description of series [16]: DRUGMATRIX: Purinergic P2X radioligand binding (ligand: [3H] alpha, beta-Methylene-ATP). It is filed as cell membranes, Oryctolagus cuniculus, New Zealand albino, Urinary bladder, Membrane. The settings on record: Not Active = under 50% inhibition at 10 µM.
The target of series [17] is Cytochrome P450 2C19 (Homo sapiens, UniProt P33261). The settings on record: bti-tn-5b1-4. Also: in other assays of this panel Not Active means under 50% inhibition at 10 µM.
Sequence of Cytochrome P450 2C19 (P33261 whole entry): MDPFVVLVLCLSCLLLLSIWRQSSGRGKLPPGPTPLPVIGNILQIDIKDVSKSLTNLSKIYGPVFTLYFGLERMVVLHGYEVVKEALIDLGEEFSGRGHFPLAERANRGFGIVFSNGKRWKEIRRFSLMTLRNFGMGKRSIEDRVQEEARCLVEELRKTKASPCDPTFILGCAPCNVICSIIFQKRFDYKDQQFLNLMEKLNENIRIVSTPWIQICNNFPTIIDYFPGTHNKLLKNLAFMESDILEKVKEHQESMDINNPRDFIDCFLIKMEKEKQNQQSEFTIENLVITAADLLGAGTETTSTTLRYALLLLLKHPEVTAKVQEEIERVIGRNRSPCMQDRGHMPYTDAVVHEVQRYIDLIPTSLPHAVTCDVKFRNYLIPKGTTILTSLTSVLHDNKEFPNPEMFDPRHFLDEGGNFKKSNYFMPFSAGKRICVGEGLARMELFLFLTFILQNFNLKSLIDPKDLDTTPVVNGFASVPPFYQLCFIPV

By IC50 is commonly meant the concentration needed to halve the response being measured. Usually Ki stands for the equilibrium dissociation constant of an inhibitor or competing ligand from its target.

Structures are written as SMILES.

Sequence of Tyrosine-protein kinase Fyn (P06241 whole entry): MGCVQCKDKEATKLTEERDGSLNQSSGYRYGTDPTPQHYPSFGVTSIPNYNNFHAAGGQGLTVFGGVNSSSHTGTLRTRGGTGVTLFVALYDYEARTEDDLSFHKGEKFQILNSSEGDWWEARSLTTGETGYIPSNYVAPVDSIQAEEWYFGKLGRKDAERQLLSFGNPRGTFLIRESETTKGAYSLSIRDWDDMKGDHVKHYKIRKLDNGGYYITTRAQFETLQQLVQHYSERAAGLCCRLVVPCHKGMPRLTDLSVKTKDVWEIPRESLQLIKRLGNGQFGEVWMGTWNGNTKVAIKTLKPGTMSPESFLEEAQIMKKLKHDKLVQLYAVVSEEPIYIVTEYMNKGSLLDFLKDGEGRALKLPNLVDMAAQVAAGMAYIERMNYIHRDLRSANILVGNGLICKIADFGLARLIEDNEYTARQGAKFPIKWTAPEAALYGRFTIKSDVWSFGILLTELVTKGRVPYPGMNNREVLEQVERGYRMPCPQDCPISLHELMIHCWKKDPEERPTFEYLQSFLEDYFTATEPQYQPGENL
Sequence of C-C chemokine receptor type 2 (P41597 whole entry): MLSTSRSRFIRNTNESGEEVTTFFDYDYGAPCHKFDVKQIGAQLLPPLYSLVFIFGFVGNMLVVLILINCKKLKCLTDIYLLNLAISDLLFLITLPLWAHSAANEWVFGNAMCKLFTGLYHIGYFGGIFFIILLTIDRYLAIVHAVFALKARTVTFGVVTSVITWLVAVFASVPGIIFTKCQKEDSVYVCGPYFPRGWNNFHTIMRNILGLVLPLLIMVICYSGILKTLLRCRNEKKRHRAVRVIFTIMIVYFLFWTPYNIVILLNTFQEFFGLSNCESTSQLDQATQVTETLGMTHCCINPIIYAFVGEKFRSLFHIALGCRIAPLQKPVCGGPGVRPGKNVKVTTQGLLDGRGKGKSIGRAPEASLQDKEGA
Sequence of Beta-3 adrenergic receptor (P13945 whole entry): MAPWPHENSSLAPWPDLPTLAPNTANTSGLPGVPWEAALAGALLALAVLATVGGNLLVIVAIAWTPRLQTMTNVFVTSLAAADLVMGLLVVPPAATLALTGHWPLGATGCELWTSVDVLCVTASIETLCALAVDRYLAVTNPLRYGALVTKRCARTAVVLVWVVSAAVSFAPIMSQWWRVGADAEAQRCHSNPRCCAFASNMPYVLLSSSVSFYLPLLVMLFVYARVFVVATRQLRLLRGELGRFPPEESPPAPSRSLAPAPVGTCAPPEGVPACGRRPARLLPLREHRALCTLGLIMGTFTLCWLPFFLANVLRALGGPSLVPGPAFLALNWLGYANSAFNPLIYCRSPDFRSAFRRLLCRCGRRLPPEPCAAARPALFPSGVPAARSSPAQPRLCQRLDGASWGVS

Regarding `COc1ccc2cc(CC(=O)O)ccc2c1`, the 50% inhibitory concentration (IC50) entry in series [1] (hek293), in series [2], in [3], in series [4] (cho), in [5] and in [6] was “Not Active” throughout. Also, the IC50 result in series [7] is “Not Active”; in [8] (cho-k1) it was “Not Active”; in series [9], “Not Active”; in series [10], “Not Active”; in series [11], “Not Active”; in series [12] (read-out: IC50), 49.7 µM. Further, the IC50 result in series [13], in series [14], in series [15], in series [16] and in series [17] was “Not Active” each time. For the same molecule, the Ki entry in [3], in series [9], in [10], in series [14], in series [16] and in series [17] was “Not Active” in each case.

`CC=CC(=O)N(CC)c1ccccc1C`: the half-maximal inhibitory concentration (IC50) entry in [1] (hek293), in [2], in [3], in [4] (cho), in series [5] and in [6] was “Not Active” each time. Moreover, the IC50 result in series [7], in [8] (cho-k1), in series [9], in series [10], in [11] and in [12] was “Not Active” throughout. The half-inhibitory concentration (IC50) result in [13], in [14], in series [15], in series [16] and in [17] was “Not Active” throughout. Moreover, the Ki result in series [3], in series [9], in [10], in series [14], in series [16] and in series [17] was “Not Active” throughout.

Turning to `C=C1C(=O)O[C@@H]2C3O[C@]3(C)CC/C=C(\C)CC[C@@H]12` (stereo partly drawn), the IC50 result in series [1] (hek293), in series [2], in series [3], in series [4] (cho), in series [5] and in series [6] was “Not Active” throughout. Also, the IC50 result in series [7], in [8] (cho-k1), in series [9], in series [10], in [11] and in series [12] was “Not Active” in each case. The IC50 entry in series [13], in [14], in [15], in [16] and in series [17] was “Not Active” each time. For the same molecule, the inhibition constant (Ki) result in series [3], in series [9], in series [10], in series [14], in series [16] and in series [17] was “Not Active” throughout.

For `CC(/C=C1\SC(=S)N(CC(=O)O)C1=O)=C\c1ccccc1`, the IC50 entry in series [1] (hek293), in series [2], in series [3], in [4] (cho), in series [5] and in series [6] was “Not Active” in each case. The concentration for half-maximal inhibition (IC50) result in series [7], in [8] (cho-k1), in series [9], in [10], in series [11] and in [12] was “Not Active” throughout. The IC50 entry in series [13], in [14], in series [15], in [16] and in series [17] was “Not Active” in each case. Also, the inhibition constant Ki entry in series [3], in series [9], in [10], in series [14], in series [16] and in series [17] was “Not Active” in each case.

For the molecule `CCCCCCCCCc1ccc(O)cc1` [4-NONYLPHENOL], the IC50 in series [1] (read-out: IC50) was 4.19 µM; in series [2] it was “Not Active”; in series [3] it was “Not Active”; in [4] (read-out: IC50) it was 4.51 µM; in series [5], “Not Active”; in series [6], “Not Active”. Further, the half-maximal inhibitory concentration (IC50) result in series [7] is “Not Active”; in series [8] (read-out: IC50), 1.65 µM; in series [9], “Not Active”; in [10] it was “Not Active”; in series [11], “Not Active”; in series [12], “Not Active”. In addition, the IC50 result in series [13], in series [14], in series [15], in series [16] and in series [17] was “Not Active” throughout. Moreover, the inhibition constant Ki in series [1] (read-out: Ki) is 3.14 µM; in series [3] it was “Not Active”; in series [4] (read-out: Ki) it was 1.51 µM; in series [8] (read-out: Ki) it was 1.31 µM; in series [9] it was “Not Active”; in series [10] it was “Not Active”. In addition, the inhibitory constant (Ki) result in [14], in series [16] and in series [17] was “Not Active” in each case.

The values above are taken from ChEMBL document CHEMBL1909046, “DrugMatrix in vitro pharmacology data”.
